Experiment: solubility of the photosensitizer in triglycerides
Type: physicochemical
Conditions: the main component of adipose cells

SMILES: Oc1cccc(-c2c3nc(c(-c4cccc(O)c4)c4ccc([nH]4)c(-c4cccc(O)c4)c4nc(c(-c5cccc(O)c5)c5ccc2[nH]5)CC4)C=C3)c1 [mTHPC, temoporfin]
- solubility level in the triglycerides: low solubility level

— patent US20070154538A1, “Removal of fat cells by PDT” (CeramOptec GmbH, priority 2005, published 2007)
